What all share (test): Thermal stability shift assay
Type in all cases: binding

Assay [1] has as its target T1, MST2 (Homo sapiens, UniProt Q13188).
T1 construct: purchased in-house (SGC Oxford thermal shift panel)
T1 sequence (Q13188 1-491): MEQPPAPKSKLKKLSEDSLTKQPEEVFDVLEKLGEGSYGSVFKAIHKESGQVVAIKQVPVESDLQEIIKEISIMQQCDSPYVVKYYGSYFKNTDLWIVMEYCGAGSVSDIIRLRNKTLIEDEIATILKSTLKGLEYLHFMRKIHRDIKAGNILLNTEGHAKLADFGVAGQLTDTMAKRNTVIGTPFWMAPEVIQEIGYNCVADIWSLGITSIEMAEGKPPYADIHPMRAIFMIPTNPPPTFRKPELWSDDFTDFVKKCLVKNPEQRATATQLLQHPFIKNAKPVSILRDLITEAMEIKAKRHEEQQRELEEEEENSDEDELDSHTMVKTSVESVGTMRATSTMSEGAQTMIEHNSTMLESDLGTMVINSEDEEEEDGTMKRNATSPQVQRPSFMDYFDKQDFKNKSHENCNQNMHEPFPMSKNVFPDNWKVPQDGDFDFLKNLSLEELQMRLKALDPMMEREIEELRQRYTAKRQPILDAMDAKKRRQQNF
To be noted: read-out: Tm shift MST2. The method, then:
(§1) Thermal denaturation experiments were carried out in an Mx3005p real-time PCR machine (Agilent) using a protein concentration of 2 μM and an inhibitor concentration of 10 μM. Samples were buffered in 10 mM HEPES (pH 7.5), 500 mM NaCl and a 1:1000 dilution of SyproOrange (Invitrogen). The assay and data evaluation were carried out as described ([Bullock et al., 2005])

Assay [2] deals with SRPK2 (Homo sapiens, UniProt P78362). Particulars: read-out: Tm shift SRPK2. The method, then:
as §1

In assay [3] the target is ZC2/TNIK (Homo sapiens, UniProt Q9UKE5). Particulars: read-out: Tm shift ZC2/TNIK. The method, then:
as §1

Assay [4] deals with T2, DCAMKL1 (Homo sapiens, UniProt O15075).
T2 construct: purchased in-house (SGC Oxford thermal shift panel)
T2 sequence (O15075 1-740): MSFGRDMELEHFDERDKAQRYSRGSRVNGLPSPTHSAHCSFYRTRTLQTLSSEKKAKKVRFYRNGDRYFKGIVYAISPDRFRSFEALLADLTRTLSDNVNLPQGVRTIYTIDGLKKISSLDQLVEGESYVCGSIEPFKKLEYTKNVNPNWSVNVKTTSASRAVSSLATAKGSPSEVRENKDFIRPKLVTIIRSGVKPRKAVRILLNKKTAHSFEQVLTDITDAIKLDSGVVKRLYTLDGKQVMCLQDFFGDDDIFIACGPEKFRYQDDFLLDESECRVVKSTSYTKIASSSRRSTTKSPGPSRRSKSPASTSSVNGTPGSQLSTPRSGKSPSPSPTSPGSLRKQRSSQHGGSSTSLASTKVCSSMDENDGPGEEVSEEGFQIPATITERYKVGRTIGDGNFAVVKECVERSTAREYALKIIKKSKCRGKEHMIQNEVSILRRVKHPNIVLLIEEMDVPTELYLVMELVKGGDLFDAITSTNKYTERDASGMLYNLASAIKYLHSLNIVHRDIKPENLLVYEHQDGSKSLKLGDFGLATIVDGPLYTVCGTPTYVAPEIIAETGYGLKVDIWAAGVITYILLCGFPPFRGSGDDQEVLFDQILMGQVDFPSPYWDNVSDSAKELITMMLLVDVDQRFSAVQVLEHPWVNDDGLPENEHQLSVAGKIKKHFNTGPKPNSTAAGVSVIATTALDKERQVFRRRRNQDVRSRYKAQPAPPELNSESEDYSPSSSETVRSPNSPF
Particulars: read-out: Tm shift DCAMKL1. The method, then:
as §1

The target in assay [5] is T3, FGR (Homo sapiens, UniProt P09769).
T3 construct: purchased in-house (SGC Oxford thermal shift panel)
T3 sequence (P09769 whole entry): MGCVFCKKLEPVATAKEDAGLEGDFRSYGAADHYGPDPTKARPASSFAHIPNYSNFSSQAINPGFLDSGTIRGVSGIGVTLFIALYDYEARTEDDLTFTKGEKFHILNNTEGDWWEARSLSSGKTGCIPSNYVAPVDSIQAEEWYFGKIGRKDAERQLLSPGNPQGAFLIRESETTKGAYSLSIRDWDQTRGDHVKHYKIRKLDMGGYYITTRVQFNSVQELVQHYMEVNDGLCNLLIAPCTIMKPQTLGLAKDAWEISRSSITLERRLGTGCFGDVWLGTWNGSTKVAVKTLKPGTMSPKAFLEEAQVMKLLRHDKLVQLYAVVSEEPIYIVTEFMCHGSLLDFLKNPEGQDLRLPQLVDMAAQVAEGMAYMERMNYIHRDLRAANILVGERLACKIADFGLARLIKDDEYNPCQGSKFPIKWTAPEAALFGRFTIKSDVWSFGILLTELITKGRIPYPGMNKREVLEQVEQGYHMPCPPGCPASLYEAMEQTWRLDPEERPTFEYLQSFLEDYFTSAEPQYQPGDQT
To be noted: read-out: Tm shift FGR. The method, then: as §1

In assay [6] the target is T4, MSSK1 (Homo sapiens, UniProt Q9UPE1).
T4 construct: purchased in-house (SGC Oxford thermal shift panel)
T4 sequence (Q9UPE1 whole entry): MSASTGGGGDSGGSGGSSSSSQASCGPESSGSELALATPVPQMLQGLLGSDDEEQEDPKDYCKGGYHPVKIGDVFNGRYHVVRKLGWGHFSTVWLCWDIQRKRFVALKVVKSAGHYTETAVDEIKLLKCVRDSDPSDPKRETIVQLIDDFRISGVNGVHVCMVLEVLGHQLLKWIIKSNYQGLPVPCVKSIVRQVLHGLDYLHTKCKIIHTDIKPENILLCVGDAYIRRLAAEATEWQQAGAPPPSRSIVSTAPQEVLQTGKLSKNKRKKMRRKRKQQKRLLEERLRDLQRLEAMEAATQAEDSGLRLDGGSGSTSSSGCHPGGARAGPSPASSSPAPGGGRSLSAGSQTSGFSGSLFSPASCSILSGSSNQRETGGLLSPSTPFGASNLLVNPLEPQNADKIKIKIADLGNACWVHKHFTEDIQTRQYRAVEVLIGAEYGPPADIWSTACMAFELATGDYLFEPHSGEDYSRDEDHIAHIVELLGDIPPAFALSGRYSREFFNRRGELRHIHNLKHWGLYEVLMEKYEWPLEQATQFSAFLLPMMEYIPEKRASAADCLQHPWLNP
Particulars: read-out: Tm shift MSSK1. As for the experimental part: as §1

For assay [7], the target named is T5, PBK (Homo sapiens, UniProt Q96KB5).
T5 construct: purchased in-house (SGC Oxford thermal shift panel)
T5 sequence (Q96KB5 1-322): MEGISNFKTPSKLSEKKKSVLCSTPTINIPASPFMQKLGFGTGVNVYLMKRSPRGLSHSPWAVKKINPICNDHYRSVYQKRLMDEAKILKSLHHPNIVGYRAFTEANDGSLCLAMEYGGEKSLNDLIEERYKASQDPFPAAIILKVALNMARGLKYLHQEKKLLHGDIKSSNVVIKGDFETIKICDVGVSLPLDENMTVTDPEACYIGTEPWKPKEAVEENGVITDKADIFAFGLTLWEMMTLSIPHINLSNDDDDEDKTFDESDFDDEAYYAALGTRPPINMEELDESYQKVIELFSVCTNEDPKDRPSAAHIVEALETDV
To be noted: read-out: Tm shift PBK. The method, then:
as §1

Assay [8] deals with T6, VRK1 (Homo sapiens, UniProt Q99986).
T6 sequence (Q99986 1-396): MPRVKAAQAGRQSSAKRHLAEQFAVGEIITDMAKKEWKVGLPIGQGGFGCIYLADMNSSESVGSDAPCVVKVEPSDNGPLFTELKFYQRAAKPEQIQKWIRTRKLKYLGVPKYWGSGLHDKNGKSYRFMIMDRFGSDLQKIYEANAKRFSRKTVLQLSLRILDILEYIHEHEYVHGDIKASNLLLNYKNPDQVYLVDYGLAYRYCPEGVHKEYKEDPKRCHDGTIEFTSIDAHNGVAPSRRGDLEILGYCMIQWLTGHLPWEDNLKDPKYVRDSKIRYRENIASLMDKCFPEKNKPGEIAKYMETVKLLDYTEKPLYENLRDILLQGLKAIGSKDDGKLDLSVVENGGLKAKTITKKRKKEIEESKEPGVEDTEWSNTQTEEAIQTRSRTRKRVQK
To be noted: read-out: Tm shift VRK1. The method, then:
as §1

SMILES strings stand for the structures. Like-named read-outs stand apart in the source and are kept apart here.

Chain of ZC2/TNIK (Q9UKE5 whole entry): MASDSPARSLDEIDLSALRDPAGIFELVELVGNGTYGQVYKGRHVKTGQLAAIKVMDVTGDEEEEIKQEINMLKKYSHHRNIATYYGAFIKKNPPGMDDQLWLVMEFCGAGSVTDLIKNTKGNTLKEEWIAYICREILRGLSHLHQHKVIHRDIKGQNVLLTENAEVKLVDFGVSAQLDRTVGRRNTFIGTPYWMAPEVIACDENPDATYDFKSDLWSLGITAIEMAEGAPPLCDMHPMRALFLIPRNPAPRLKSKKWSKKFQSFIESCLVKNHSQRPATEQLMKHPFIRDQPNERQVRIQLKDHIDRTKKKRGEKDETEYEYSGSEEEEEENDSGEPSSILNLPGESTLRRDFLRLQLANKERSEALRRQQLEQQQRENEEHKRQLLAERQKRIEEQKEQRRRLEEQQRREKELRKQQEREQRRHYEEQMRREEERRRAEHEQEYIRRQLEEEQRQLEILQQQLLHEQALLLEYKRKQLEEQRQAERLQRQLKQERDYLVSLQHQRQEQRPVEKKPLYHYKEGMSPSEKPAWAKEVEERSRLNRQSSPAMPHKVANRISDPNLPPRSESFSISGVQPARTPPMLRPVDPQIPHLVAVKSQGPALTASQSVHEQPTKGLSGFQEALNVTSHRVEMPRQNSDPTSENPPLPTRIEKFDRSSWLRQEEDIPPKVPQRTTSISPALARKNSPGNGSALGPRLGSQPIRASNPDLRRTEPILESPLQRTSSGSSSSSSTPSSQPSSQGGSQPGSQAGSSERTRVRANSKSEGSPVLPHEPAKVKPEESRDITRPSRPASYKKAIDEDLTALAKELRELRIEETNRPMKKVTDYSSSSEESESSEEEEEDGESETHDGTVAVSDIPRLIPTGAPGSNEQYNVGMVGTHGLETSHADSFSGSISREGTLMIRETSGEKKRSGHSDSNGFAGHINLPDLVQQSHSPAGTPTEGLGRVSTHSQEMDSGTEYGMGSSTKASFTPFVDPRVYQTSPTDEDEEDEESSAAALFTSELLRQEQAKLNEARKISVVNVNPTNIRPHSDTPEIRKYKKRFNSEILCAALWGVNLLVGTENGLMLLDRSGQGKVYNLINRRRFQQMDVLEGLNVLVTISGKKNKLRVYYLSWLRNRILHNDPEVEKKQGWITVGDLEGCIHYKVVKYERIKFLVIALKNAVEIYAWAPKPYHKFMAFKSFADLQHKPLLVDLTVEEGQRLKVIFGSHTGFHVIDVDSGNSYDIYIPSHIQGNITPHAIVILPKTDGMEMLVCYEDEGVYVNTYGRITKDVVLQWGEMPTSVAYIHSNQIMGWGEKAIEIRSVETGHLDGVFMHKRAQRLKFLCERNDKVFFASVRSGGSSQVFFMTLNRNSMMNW
Chain of SRPK2 (P78362 whole entry): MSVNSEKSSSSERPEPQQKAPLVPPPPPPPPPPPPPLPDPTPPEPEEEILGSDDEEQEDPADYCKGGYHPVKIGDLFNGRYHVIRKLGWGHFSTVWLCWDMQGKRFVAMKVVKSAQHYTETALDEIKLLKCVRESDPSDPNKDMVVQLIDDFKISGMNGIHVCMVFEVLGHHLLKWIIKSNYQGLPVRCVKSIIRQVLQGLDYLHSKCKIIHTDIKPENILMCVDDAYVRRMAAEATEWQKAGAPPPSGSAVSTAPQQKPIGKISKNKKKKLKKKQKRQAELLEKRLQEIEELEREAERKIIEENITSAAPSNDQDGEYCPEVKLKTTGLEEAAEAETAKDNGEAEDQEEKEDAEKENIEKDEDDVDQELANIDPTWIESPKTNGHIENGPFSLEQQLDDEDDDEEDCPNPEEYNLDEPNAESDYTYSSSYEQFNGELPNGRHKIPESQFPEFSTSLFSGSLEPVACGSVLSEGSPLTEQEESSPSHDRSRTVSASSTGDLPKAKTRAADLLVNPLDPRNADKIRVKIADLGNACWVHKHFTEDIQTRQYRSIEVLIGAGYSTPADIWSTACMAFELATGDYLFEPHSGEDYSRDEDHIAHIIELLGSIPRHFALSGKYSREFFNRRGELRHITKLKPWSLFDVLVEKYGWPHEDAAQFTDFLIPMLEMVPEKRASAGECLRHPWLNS

Regarding `CCOC(=O)c1c(/C(C#N)=C\N)c2ccc(Cl)c(Cl)c2n1C` [KH-CB19, (E)-Ethyl 3-(2-Amino-1-Cyanovinyl)-6,7-Dichloro-1-Methyl-1H-Indole-2-Carboxylate], the ΔTm at 10 µM in assay [1] is 0.2 °C; in assay [2], 0.1 °C; in assay [3], 0.2 °C; in assay [4], -0.2 °C; in assay [5], -0.3 °C; in assay [6] it was 0.2 °C. For the same compound, the ΔTm at 10 µM in assay [7] was -0.3 °C; in assay [8], 0 °C.

For `NC1=NC(=O)/C(=C2\CCNC(=O)c3[nH]c(Br)cc32)N1` [Hymenialdisine, hymenialdisine, reference compound], the ΔTm at 10 µM in assay [1] (inhibitor 10 μM) was 3.9 °C; in assay [2] (inhibitor 10 μM) it was -0.2 °C; in assay [3], 3.4 °C; in assay [4] (inhibitor 10 μM) it was 0.5 °C; in assay [5] (inhibitor 10 μM), 0.7 °C; in assay [6] (inhibitor 10 μM), 0.3 °C. Also, the ΔTm at 10 µM in assay [7] (inhibitor 10 μM) is -0.4 °C; in assay [8] (inhibitor 10 μM), 2 °C.

Regarding `CCOC(=O)c1c(C(C#N)=CN)c2ccc(Cl)c(Cl)c2n1C` (mixture of isomers) [KH-CB20, (E/Z)-Ethyl 3-(2-Amino-1-Cyanovinyl)-6,7-Dichloro-1-Methyl-1H-Indole-2-Carboxylate], the ΔTm at 10 µM in assay [1] is 0.4 °C; in assay [2], 0.5 °C; in assay [3], -0.1 °C; in assay [4], -0.1 °C; in assay [5], 0.3 °C; in assay [6] it was 0.5 °C. Further, the results for the ΔTm at 10 µM in assay [7] and in assay [8] were -0.1 °C and 0.2 °C, respectively.

Take `Cn1c2c(Cl)c(Cl)ccc2c2c(C#N)c[nH]c(=O)c21` [compound 3, 7,8-Dichloro-9-Methyl-1-Oxo-2,9-Dihydro-1H-Pyrido[3,4-b]Indole-4-Carbonitrile]: the ΔTm at 10 µM is -0.5 °C in assay [1] (inhibitor 10 μM); 0.2 °C in assay [2] (inhibitor 10 μM); 0 °C in assay [3] (inhibitor 10 μM); 0 °C in assay [4] (inhibitor 10 μM); 0.1 °C in assay [5] (inhibitor 10 μM); 0.3 °C in assay [6] (inhibitor 10 μM). Moreover, the ΔTm at 10 µM in assay [7] (inhibitor 10 μM) and in assay [8] (inhibitor 10 μM) was -0.4 °C each time.

In the case of `CCOC(=O)c1c(C(C#N)=CN(C)C)c2ccc(Cl)c(Cl)c2n1C` (mixture of isomers) [compound 2, (E/Z)-Ethyl 6,7-Dichloro-3-[1-Cyano-2-(Dimethylamino)Vinyl]-1-Methyl-1H-Indole-2-Carboxylate], the ΔTm at 10 µM is 0.3 °C in assay [1] (inhibitor 10 μM); -0.1 °C in assay [2] (inhibitor 10 μM); 0.1 °C in assay [3] (inhibitor 10 μM); 0.7 °C in assay [4] (inhibitor 10 μM); -0.2 °C in assay [5] (inhibitor 10 μM); 0.3 °C in assay [6] (inhibitor 10 μM). The values for the ΔTm at 10 µM in assay [7] (inhibitor 10 μM) and in assay [8] (inhibitor 10 μM) were -0.9 °C and 0.2 °C, respectively.

Values taken from article PMC3145970, “Specific CLK Inhibitors from a Novel Chemotype for Regulation of Alternative Splicing” (Chemistry & Biology, 2011).
